Assay results published in ChEMBL document CHEMBL1150269, “Structural origin of selectivity in class II-selective histone deacetylase inhibitors” (J Med Chem, 2008).

Columns and labels:
Histone deacetylase 1 = Histone deacetylase 1 (Homo sapiens, UniProt Q13547); assay: Inhibition of HDAC1
[1] = biological target: T1, Protein deacetylase HDAC6 (Homo sapiens, UniProt Q9UBN7); assay: Inhibition of HDAC6
T1 sequence (Q9UBN7 whole entry): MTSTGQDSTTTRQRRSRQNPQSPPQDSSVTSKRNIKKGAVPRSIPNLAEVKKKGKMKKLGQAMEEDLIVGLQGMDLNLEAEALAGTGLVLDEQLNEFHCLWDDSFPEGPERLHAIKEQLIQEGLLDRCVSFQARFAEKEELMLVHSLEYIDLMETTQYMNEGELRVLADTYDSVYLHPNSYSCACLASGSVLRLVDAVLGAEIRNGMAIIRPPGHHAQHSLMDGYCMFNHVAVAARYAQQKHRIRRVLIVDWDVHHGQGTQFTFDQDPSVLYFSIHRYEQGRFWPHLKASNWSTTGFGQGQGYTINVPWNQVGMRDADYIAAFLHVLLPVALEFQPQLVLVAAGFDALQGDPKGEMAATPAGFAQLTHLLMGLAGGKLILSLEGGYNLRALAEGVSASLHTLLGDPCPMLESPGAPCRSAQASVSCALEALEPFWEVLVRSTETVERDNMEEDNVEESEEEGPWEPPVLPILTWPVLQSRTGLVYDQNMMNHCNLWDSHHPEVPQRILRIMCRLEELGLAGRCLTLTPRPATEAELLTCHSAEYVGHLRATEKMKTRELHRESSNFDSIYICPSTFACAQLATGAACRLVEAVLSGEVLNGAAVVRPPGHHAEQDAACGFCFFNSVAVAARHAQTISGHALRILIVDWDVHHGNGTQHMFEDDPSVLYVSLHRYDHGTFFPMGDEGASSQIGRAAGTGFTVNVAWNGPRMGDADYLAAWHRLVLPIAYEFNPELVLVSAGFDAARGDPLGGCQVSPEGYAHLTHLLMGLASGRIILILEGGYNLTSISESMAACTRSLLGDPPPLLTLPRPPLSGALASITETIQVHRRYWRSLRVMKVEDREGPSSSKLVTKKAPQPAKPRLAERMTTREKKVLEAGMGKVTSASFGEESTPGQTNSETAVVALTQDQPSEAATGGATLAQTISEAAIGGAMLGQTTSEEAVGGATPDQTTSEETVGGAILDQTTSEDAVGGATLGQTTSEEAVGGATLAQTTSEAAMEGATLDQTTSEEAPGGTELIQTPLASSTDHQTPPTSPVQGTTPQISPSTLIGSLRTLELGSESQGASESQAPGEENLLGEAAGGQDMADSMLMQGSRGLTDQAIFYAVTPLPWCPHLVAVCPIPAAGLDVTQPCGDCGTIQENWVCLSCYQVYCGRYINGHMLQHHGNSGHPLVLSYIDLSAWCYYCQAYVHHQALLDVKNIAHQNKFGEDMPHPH

Histone deacetylase 9 = Histone deacetylase 9 (Homo sapiens, UniProt Q9UKV0); assay: Inhibition of HDAC9
Sequence of Histone deacetylase 9 (Q9UKV0 whole entry): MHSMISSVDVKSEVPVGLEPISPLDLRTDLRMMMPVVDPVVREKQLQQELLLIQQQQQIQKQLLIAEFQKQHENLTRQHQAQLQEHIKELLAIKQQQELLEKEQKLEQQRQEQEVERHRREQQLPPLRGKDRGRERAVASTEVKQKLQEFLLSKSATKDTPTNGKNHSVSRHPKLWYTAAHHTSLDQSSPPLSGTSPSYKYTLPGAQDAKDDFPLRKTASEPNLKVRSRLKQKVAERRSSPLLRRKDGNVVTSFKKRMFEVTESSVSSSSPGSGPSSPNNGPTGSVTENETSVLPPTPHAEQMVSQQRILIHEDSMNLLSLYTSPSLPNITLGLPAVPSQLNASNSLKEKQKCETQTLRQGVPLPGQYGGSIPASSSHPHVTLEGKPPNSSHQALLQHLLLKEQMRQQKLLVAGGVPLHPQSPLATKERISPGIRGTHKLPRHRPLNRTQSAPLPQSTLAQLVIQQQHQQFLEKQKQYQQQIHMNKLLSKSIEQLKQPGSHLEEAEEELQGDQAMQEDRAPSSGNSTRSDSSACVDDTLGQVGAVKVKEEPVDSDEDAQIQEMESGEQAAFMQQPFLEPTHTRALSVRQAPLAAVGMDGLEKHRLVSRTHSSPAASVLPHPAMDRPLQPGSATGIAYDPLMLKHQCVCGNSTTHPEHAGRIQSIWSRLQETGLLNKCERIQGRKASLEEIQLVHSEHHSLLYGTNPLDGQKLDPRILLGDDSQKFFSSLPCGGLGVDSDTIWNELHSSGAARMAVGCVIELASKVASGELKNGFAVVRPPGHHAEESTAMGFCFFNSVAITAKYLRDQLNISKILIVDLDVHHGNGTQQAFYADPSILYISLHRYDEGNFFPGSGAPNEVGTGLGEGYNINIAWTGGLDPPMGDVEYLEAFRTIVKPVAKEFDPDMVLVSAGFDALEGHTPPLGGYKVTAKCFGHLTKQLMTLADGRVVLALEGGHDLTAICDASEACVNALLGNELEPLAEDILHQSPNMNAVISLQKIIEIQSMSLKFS

Sequence of Histone deacetylase 1 (Q13547 whole entry): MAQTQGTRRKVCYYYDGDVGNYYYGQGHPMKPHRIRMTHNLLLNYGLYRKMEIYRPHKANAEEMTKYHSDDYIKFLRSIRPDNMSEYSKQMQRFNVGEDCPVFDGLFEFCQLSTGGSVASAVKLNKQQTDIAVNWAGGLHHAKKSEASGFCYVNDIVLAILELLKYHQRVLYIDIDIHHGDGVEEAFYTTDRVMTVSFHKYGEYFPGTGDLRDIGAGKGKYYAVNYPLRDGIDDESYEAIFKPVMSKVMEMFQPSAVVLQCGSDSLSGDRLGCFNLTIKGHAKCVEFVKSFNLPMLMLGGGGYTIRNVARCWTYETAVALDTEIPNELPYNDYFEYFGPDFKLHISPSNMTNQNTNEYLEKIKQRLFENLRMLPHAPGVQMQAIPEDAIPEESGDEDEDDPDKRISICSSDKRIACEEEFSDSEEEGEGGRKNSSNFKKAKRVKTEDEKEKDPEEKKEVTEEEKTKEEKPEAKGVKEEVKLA

Ki (Histone deacetylase 1): 88 nM | Ki [1]: 28 nM | Ki (Histone deacetylase 9): 6100 nM
Compound: O=C(CCCCCCC(=O)Nc1ccc([C@H]2O[C@@H](CSc3ccncc3)C[C@@H](c3ccccc3)O2)cc1)NO
